Assay results from US11260023B2, “Topical compositions containing rofecoxib and methods of making and using the same” (BRIORI BIOTECH, LLC, priority 2020, dated 2022).

Tests used:
[1] = Stability of rofecoxib by HPLC after storage for two weeks at 40° C. and 50° C.; format: physicochemical
Description: The stability of rofecoxib was assessed by HPLC after storage for two weeks at 40° C. and for two weeks at 50° C.

[2] = in vivo; cited from earlier work
[3] = Solubility of rofecoxib in various solvents by High Performance Liquid Chromatography; format: physicochemical
[4] = Solubility of rofecoxib in solvent systems containing one solvent, UV spectrophotometry; format: physicochemical
Description: The solubility of rofecoxib was tested in a variety of solvent systems by UV spectrophotometry. A UV spectrophotometry method of evaluating the solubility of rofecoxib was used to determine the solubility of rofecoxib in various solvent systems. Erk et al. describes this method and is incorporated by reference herein in its entirety: Erk et al. Pharmazie. 2004 June; 59(6):453-6.
100 mg of rofecoxib was dissolved in 100 ml of methanol. Dilutions of the stock solution were made into methanol to give a final rofecoxib concentration of 5 μg/ml, 10 μg/ml, 20 μg/ml, 25 μg/ml, 30 μg/ml, 35 μg/ml, 40 μg/ml, 45 μg/ml, and 50 μg/ml. A UV spectrophotometer was utilized to read the absorbance of the samples 279.1 nm. Using Beer's law, a value for the extinction coefficient for rofecoxib was obtained. The value of the extinction coefficient of rofecoxib was determined to be 29.06 and was utilized in future experiments to determine the concentration of rofecoxib in various solvent systems.
100 mg of rofecoxib was added to 1 gram of each solvent. […] The mixtures of rofecoxib and solvents were vortexed for one minute and left at room temperature for one hour. The mixture was vortexed a second time and then left at room temperature overnight. The next morning the samples were vortexed a third time and then centrifuged at 12 k for 5 minutes. The excipient/rofecoxib mixture was transferred to a new tube being careful to not take any of the pellet. Serial dilutions of the rofecoxib solvent solutions were made (1:100 v:v), (1:1000 v/v), and (1:2000 v/v). Solvents without rofecoxib were diluted with methanol and used to blank a Beckman DU-7400 spectrophotometer. The absorbance of the samples was determined at a wavelength of 279.1 nm. The concentration of rofecoxib dissolved in the solvent was calculated using Beer's Law. Concentrations were converted from units of mg/mL to units of mg/g according to the following procedure:
(a) The volume of 1 g of solvent times the calculated mg/ml rofecoxib equals total mg of rofecoxib in 1 g of solvent. e.g. 1 g of a solvent that has a density of 1.05 g/mL is 952 μL. A rofecoxib solution with a concentration of rofecoxib of […] contains 28.17 mg of rofecoxib in 952 μL of solvent.
(b) To calculate the total volume, a mg of rofecoxib is assumed to equal to 1 μl of volume. Add volume of the solvent to the total weight of rofecoxib. 28.17 mg+1000 mg of solvent=1028.17 mg.
(c) To calculate the w/w divide the mg of rofecoxib 28.71 mg by the total weight of rofecoxib with solvent 1028.71 mg and multiply times 1000 mg to get the w/w […]/1028.71 mg*1000 mg=28.62 mg/g of solvent.

Which “Rofecoxib Concentration” value ([1]; Acetone, T = 0 weeks) does the source give for CS(=O)(=O)c1ccc(C2=C(c3ccccc3)C(=O)OC2)cc1 [Rofecoxib] here?
The value was 2.549 % w/w.

And the “Rofecoxib Concentration” value ([1]; Acetone, T = 2 weeks 40° C. storage)?
The value was 2.549 % w/w.

What about the “Rofecoxib Concentration” value ([1]; Acetone, T = 2 weeks 50° C. storage) of the same compound?
Its value is 2.549 % w/w.

And the “Rofecoxib Concentration” value ([1]; Benzyl alcohol, T = 0 weeks)?
Its value is 1.447 % w/w.

What about the “Rofecoxib Concentration” value ([1]; Benzyl alcohol, T = 2 weeks 40° C. storage) of the same compound?
The value was 1.474 % w/w.

What about the “Rofecoxib Concentration” value ([1]; Benzyl alcohol, T = 2 weeks 50° C. storage) of the same compound?
The value was 1.470 % w/w.

And the “Rofecoxib Concentration” value ([1]; Diethylene glycol monoethyl ether, T = 0 weeks)?
Its value is 0.687 % w/w.

What about the “Rofecoxib Concentration” value ([1]; Diethylene glycol monoethyl ether, T = 2 weeks 40° C. storage) of the same compound?
The value was 0.672 % w/w.

And the “Rofecoxib Concentration” value ([1]; Diethylene glycol monoethyl ether, T = 2 weeks 50° C. storage)?
The value was 0.677 % w/w.

What about the “Rofecoxib Concentration” value ([1]; Dimethyl isosorbide, T = 0 weeks) of the same compound?
Its value is 2.641 % w/w.

What about the “Rofecoxib Concentration” value ([1]; Dimethyl isosorbide, T = 2 weeks 40° C. storage) of the same compound?
The value was 2.515 % w/w.

What about the “Rofecoxib Concentration” value ([1]; Dimethyl isosorbide, T = 2 weeks 50° C. storage) of the same compound?
Its value is 2.511 % w/w.

And the “Rofecoxib Concentration” value ([1]; Ethyl acetate, T = 0 weeks)?
Its value is 0.465 % w/w.

And the “Rofecoxib Concentration” value ([1]; Ethyl acetate, T = 2 weeks 40° C. storage)?
Its value is 0.479 % w/w.

And the “Rofecoxib Concentration” value ([1]; Ethyl acetate, T = 2 weeks 50° C. storage)?
The value was 0.476 % w/w.

What about the “Rofecoxib Concentration” value ([1]; N-methyl-2-pyrrolidone, T = 0 weeks) of the same compound?
Its value is 5.046 % w/w.

And the “Rofecoxib Concentration” value ([1]; N-methyl-2-pyrrolidone, T = 2 weeks 40° C. storage)?
Its value is 5.057 % w/w.

What about the “Rofecoxib Concentration” value ([1]; N-methyl-2-pyrrolidone, T = 2 weeks 50° C. storage) of the same compound?
The value was 5.055 % w/w.

What about the “Rofecoxib Concentration” value ([1]; PEG 400, T = 0 weeks) of the same compound?
The value was 1.013 % w/w.

And the “Rofecoxib Concentration” value ([1]; PEG 400, T = 2 weeks 40° C. storage)?
Its value is 0.987 % w/w.

What about the “Rofecoxib Concentration” value ([1]; PEG 400, T = 2 weeks 50° C. storage) of the same compound?
Its value is 0.993 % w/w.

What about the “Rofecoxib Concentration” value ([1]; Propylene Carbonate, T = 0 weeks) of the same compound?
The value was 3.471 % w/w.

What about the “Rofecoxib Concentration” value ([1]; Propylene Carbonate, T = 2 weeks 40° C. storage) of the same compound?
The value was 3.456 % w/w.

And the “Rofecoxib Concentration” value ([1]; Propylene Carbonate, T = 2 weeks 50° C. storage)?
The value was 3.463 % w/w.

And the “Rofecoxib Concentration” value ([1]; Propylene Glycol Diacetate, T = 0 weeks)?
Its value is 0.519 % w/w.

And the “Rofecoxib Concentration” value ([1]; Propylene Glycol Diacetate, T = 2 weeks 40° C. storage)?
Its value is 0.527 % w/w.

And the “Rofecoxib Concentration” value ([1]; Propylene Glycol Diacetate, T = 2 weeks 50° C. storage)?
Its value is 0.520 % w/w.

What about the solubility after storage ([1]; two weeks at 40° C. and 50° C., in the solvents in Table 12) of the same compound?
The solubility after storage was “remained soluble”.

And the half-life [2]?
Its half-life is 17 h.

And the “Solubility of Rofecoxib” value ([3]; in 1.25% Niacinamide (Aqueous), HPLC)?
The value was “No observable solubility”.

What about the “Solubility of Rofecoxib” value ([3]; in 10% Sodium Lauryl Sulfate (Aqueous), HPLC) of the same compound?
Its value is “No observable solubility*”.

And the “Solubility of Rofecoxib” value ([3]; in Dehydrated Alcohol, HPLC)?
The value was “No observable solubility”.

And the “Solubility of Rofecoxib” value ([3]; in Diethyl Sebacate, HPLC)?
Its value is “No observable solubility”.

What about the “Solubility of Rofecoxib” value ([3]; in Diethylene Glycol Monoethyl Ether, HPLC) of the same compound?
Its value is 0.5-1.0 % w/w.

What about the “Solubility of Rofecoxib” value ([3]; in Diisoproovl Adipate, HPLC) of the same compound?
The value was “No observable solubility”.

What about the “Solubility of Rofecoxib” value ([3]; in Dimethyl Isosorbide, HPLC) of the same compound?
Its value is 2.5-3.5% w/w.

What about the “Solubility of Rofecoxib” value ([3]; in Ethyl Acetate, HPLC) of the same compound?
Its value is <0.5% w/w.

What about the “Solubility of Rofecoxib” value ([3]; in Glycervl Monooleate, HPLC) of the same compound?
The value was “No observable solubility”.

What about the “Solubility of Rofecoxib” value ([3]; in Hydrochloric Acid (0.1 N), HPLC) of the same compound?
Its value is “No observable solubility”.

And the “Solubility of Rofecoxib” value ([3]; in Laureth-4, HPLC)?
The value was “No observable solubility”.

What about the “Solubility of Rofecoxib” value ([3]; in Medium Chain Triglycerides, HPLC) of the same compound?
Its value is “No observable solubility”.

What about the “Solubility of Rofecoxib” value ([3]; in N-Methvl-Pyrrolidone, HPLC) of the same compound?
Its value is 4.4-5.4 % w/w.

And the “Solubility of Rofecoxib” value ([3]; in Oleyl Alcohol, HPLC)?
Its value is “No observable solubility”.

What about the “Solubility of Rofecoxib” value ([3]; in PEG400, HPLC) of the same compound?
The value was 1.0-1.5 % w/w.

What about the “Solubility of Rofecoxib” value ([3]; in Polysorbate 80, HPLC) of the same compound?
Its value is “No observable solubility”.

And the “Solubility of Rofecoxib” value ([3]; in Propylene Carbonate, HPLC)?
The value was 3.4-4.3 % w/w.

And the “Solubility of Rofecoxib” value ([3]; in Propylene Glycol Diacetate, HPLC)?
The value was <0.5 % w/w.

What about the “Solubility of Rofecoxib” value ([3]; in Sodium Hydroxide (0.1 N), HPLC) of the same compound?
The value was “No observable solubility”.

And the “Solubility of Rofecoxib” value ([3]; in Sorbitol Solution, HPLC)?
The value was “No observable solubility”.

What about the “Solubility of Rofecoxib” value ([3]; in Water pH 3, HPLC) of the same compound?
Its value is “No observable solubility”.

And the “Solubility of Rofecoxib” value ([3]; in Water pH 5.5, HPLC)?
Its value is “No observable solubility”.

What about the “Solubility of Rofecoxib” value ([3]; in Water pH 7.4, HPLC) of the same compound?
Its value is “No observable solubility”.

And the Solubility of Rofecoxib ([4]; in 2-Methylpentane-2,4-diol)?
Its Solubility of Rofecoxib is 0.59 mg/g.

And the Solubility of Rofecoxib ([4]; in Acetone)?
Its Solubility of Rofecoxib is 23.58 mg/g.

And the Solubility of Rofecoxib ([4]; in Benzyl Alcohol)?
The Solubility of Rofecoxib was 19.54 mg/g.

And the Solubility of Rofecoxib ([4]; in Diethyl sebacate)?
The Solubility of Rofecoxib was 1.3 mg/g.

And the Solubility of Rofecoxib ([4]; in Diethylene glycol monoethyl ether)?
Its Solubility of Rofecoxib is 9.07 mg/g.

What about the Solubility of Rofecoxib ([4]; in Diisopropyl adipate) of the same compound?
The Solubility of Rofecoxib was 2.04 mg/g.

And the Solubility of Rofecoxib ([4]; in Dimethyl Isosorbide)?
The Solubility of Rofecoxib was 39.14 mg/g.

What about the Solubility of Rofecoxib ([4]; in Dimethyl Sulfoxide) of the same compound?
The Solubility of Rofecoxib was 143.6 mg/g.

What about the Solubility of Rofecoxib ([4]; in Ethyl acetate) of the same compound?
The Solubility of Rofecoxib was 5.5 mg/g.

And the Solubility of Rofecoxib ([4]; in Isopropyl tetradecanoate)?
The Solubility of Rofecoxib was 0.0017 mg/g.

And the Solubility of Rofecoxib ([4]; in N-methyl-2-pyrrolidone)?
The Solubility of Rofecoxib was 198 mg/g.

And the Solubility of Rofecoxib ([4]; in Oleic acid)?
Its Solubility of Rofecoxib is 0.402 mg/g.

And the Solubility of Rofecoxib ([4]; in Polyethylene glycol-400 (PEG))?
Its Solubility of Rofecoxib is 13.14 mg/g.

What about the Solubility of Rofecoxib ([4]; in Polysorbate 20 (PS20)) of the same compound?
The Solubility of Rofecoxib was 9.18 mg/g.

What about the Solubility of Rofecoxib ([4]; in Polysorbate 80 (PS80)) of the same compound?
The Solubility of Rofecoxib was 9.71 mg/g.

What about the Solubility of Rofecoxib ([4]; in Propylene Carbonate) of the same compound?
Its Solubility of Rofecoxib is 49.43 mg/g.

What about the Solubility of Rofecoxib ([4]; in Propylene Glycol) of the same compound?
Its Solubility of Rofecoxib is 0.302 mg/g.

What about the Solubility of Rofecoxib ([4]; in Propylene glycol diacetate) of the same compound?
Its Solubility of Rofecoxib is 6.93 mg/g.

And the Solubility of Rofecoxib ([4]; in alpha-Terpineol 95.0+ %)?
The Solubility of Rofecoxib was 0.313 mg/g.
